Measurements from the pKa sets of Baltruschat and Czodrowski (2020).

details: acidic group

SMILES	pKa
N#Cc1cccc(S(N)(=O)=O)c1	8.84
O=Cc1ccccc1C(=O)O	4.56
O=C1CC(Sc2ccccc2)N1 (centres undefined)	13.3
CCCP(=O)(O)CCC	3.33
CCCCCCCCc1c(-c2ccccc2)n[nH]c1O	10.2
O=C1[N-]C(=S)NC(=O)C1C1C=CCCC1 (centres undefined)	11.3
O/N=C1\CCCc2nonc21	8.78
O=C(O)/C=C\SC1CCCCC1	4.95
C[n+]1c2ccccc2cc2c(N)cccc21	10
CC(=O)Nc1ccc(S(=O)(=O)Nc2nccc(C)n2)cc1	5.46
O=C(O)c1ccccc1/N=C/C=C/c1ccccc1	6.12
CCSC(C)C(=O)O (centres undefined)	3.8
C[N+](C)(C)CCCc1ccccc1O	9.78
C[n+]1ccccc1N	12.2
O=[N+]([O-])c1ccc(S(=O)O)cc1	1.86
O=[N+]([O-])C(CO)CO	9.07
CCCOC(=O)c1ccc(O)cc1	8.3
NC(=O)C1=CN2CCC1CC2	7.32
Oc1cccc2ncccc12	8.54
CC(=O)N[C@H]1CC(=O)NC1=O	8.85
Cc1ccc([Se](=O)O)cc1	4.88
CCc1ccc(O)c(C(C)C)c1	10.8

SMILES	pKa
CC(C#N)C(C)(C)C(=O)O (centres undefined)	3.97
Cc1ccc([C@H]2C[C@@H]2C(=O)O)cc1	4.6
Cc1[nH]c2ccccc2c1CC(=O)O	4.67
CC[NH+](CC)Cc1cc([N+](=O)[O-])c2ccccc2c1O	2.82
COc1cccc([N+](=O)[O-])c1O	6.74
Sc1ccc2ccccc2[nH+]1	-1.44
CC(C)[C@H](C(=O)O)N1C[C@H](NC(=O)Cc2ccccc2)C1=O	3.48
C[NH+](C)Cc1cccc(NC(=O)/C=N/O)c1	8.28
COC(=O)CC(=N/O)/C(C)=N/O	9.77
O=C(O)C#COc1ccccc1	3.09
[NH3+]CCCCCCCCCC(=O)O	4.57
CCOC(=O)Nc1ncnc2nc[nH]c12	9.63
CC(O)[C@@H]1C[NH2+][C@H](C(=O)O)[C@H]1CC(=O)O (some centres undefined)	2.94
O=S(=O)(Nc1cccc(F)c1)c1ccccc1	7.54
O=S(=O)([O-])c1c(O)ccc2[nH]ncc12	10.6
C/C(O)=C/C(=O)[O-]	13.2
[NH3+]C(c1cccc(O)c1[O-])P(=O)([O-])[O-] (centres undefined)	12.4
O=[N+]([O-])c1ccc(O)c(C[NH+]2CCOCC2)c1	5.61
O=C(O)c1cc(Cl)co1	2.69
CC(C)[C@@]12C[NH2+][C@@H](C(=O)O)[C@@H]1CC(=O)O2	2.45
C[Se](=O)O	5.19
O=C(O)C(CO)[NH2+]Cc1cc(Cl)ccc1O (centres undefined)	2.12

SMILES	pKa
CCC(C)[C@H]([NH3+])C(=O)O (some centres undefined)	2.26
CC(=O)c1cccc(NC(N)=S)c1	12.1
Cc1cccc(OC(O)(CBr)c2ccccc2)c1 (centres undefined)	11.2
O=c1cccccc1O	6.87
COc1cnccc1C(O)O	11.7
CC1=C(C)/C(=C(\C)C(=O)O)CC1=O	3.1
CCC(=O)NOC(=O)/C=C/c1ccccc1	6.8
CCCc1c(-c2ccccc2)n[nH]c1O	8
Cc1cc(O)n(-c2nc(O)cc(C)[nH+]2)n1	5.23
CCN(CC)C(=S)NC(=O)c1ccc(Cl)cc1	8
O=C(O)c1ccc(-c2nnn[nH]2)cc1	3.63
O=C(O)Cc1ccc(Cl)s1	3.89
c1cnc2nc[nH]c2c1	11.1
Brc1ccc2c(c1)C([P+](c1ccccc1)(c1ccccc1)c1ccccc1)c1ccccc1-2 (centres undefined)	7.33
CC(C)[NH2+]CC(=O)O	2.35
Oc1cc[nH+]cc1	4.04
O=C(O)C(=O)Cc1ccccc1	2.68
CC[C@@H](C(=O)O)[C@@]1(O)C[C@H]2CC[C@@H]1C2	4.26
NS(=O)(=O)c1ccsc1C(=O)O	3.3
CC(C)(C)c1cc(/C=C/C(=O)[O-])cc(C(C)(C)C)c1O	11.1
Cc1ccccc1C(=S)Nc1ccccc1	10.9

same assay, conditions: basic group

SMILES	pKa
CN(C1=NCCCO1)c1ccccc1	10.7
Clc1ccc(-c2ncc(-c3ccccc3)o2)cc1	0.41
Cc1cncc(C)n1	2.11
COc1ccc2c3c1O[C@H]1CCC[C@H]4[C@H](NCC[C@]314)[C@@H]2O	9.17
CCCCNCC/C(N)=N/O	9.6
CNOC	4.75
CC(C)(C)c1cccnc1	5.82
CC(C)C=O	15.7
Nc1ncc(Cl)s1	3.66
CC[NH+](C)CCOCCN(C)C	7.96
CCCNc1c2ccccc2nc2cccc([N+](=O)[O-])c12	7.2
CN(C)c1ccc([N+](=O)[O-])c2c(NCCC[NH+](C)C)c3ccccc3nc12	6.47
CN1CC=CCN1C	5.7
CCc1ccc(/N=N/c2ccc(N(C)C)cc2)cc1C	2.6
[NH3+]CCCc1ccccn1	4.98
COc1cc(C)nc(NN)n1	6.2
COc1cnccn1	0.75
CCc1ccc(OC)c(C(=O)NC[C@H]2CCCN2CC)c1[O-]	9.54
CC(=O)Nc1ccc(S(=O)(=O)Nc2nccc(C)n2)cc1	0.9
Cn1cnc(=O)c(-c2ccccc2)c1	1.99

SMILES	pKa
Nc1ccc([N+](=O)[O-])c2ccccc12	0.53
CCN1CCC[C@@H]1CNC(=O)c1c(OC)ccc(Cl)c1[O-]	9.54
Cn1cc(N)cn1	5.52
Cc1ccncc1	6.15
COc1ccc2c3c1O[C@H]1CCC[C@H]4[C@@H]([C@H]2O)N(C)CC[C@]314	7.71
Nc1ccnc2c([O-])cccc12	10.7
Oc1cccc2ncccc12	5.2
CC[NH+](CC)CCCCC(C)Nc1c2ccc(Cl)cc2nc2ccc(OC)cc12 (centres undefined)	7.74
c1ccc(Oc2ccncc2)cc1	6.16
CCCCCCCCCNCc1ccc(C)cc1	9.48
CC(=O)N(C)c1cccnc1	3.52
Cc1cc(C)n(-c2cc(C)n(C)[nH+]2)n1	-2.9
OCCN1CC[NH+](CCCN2c3ccccc3Sc3ccc(Cl)cc32)CC1	3.59
COc1ccnnc1	3.7
CC(O)CNCC(C)O (centres undefined)	8.88
CCOC(=O)Nc1ncnc2nc[nH]c12	2.4
[O-]c1ccccc1CN1CCCCC1	11
Brc1cncc2ccccc12	3.54
O=C(NCCN1CCOCC1)c1ccc(Cl)cc1	6.31
c1ccc(Cn2ccnc2)cc1	6.66

SMILES	pKa
Cn1ncc2c(NCCO)ncnc21	3.86
CCC(C)(CC)Nc1ccccc1	6.32
COc1ccc(C(O)c2ccccc2)cc1 (centres undefined)	-8
NCCCCCCC(=O)[O-]	10.9
Cc1ccc(N)c(N)c1	5
NCC(O)C[NH3+]	8.19
Nc1ccc(C(O)(c2ccccc2)c2ccc(N)cc2)cc1	5.83
Cc1nn(C)c(C)c1C	4.48
NCCC(=O)N[C@@H](Cc1cnc[nH]1)C(=O)[O-]	9.35
Cc1cnc2ccccc2c1	5.15
CCC(N)(CC)CC	10.9
C#C[C@]1(O)C[C@@H](C)N[C@@H]2CCCC[C@H]21	9.73
c1cnc2nc[nH]c2c1	3.95
COC(=N)N	9.72
Cn1cccn1	2.48
NCC(=O)[O-]	9.65
COc1ccc(CCN)cc1OC	9.87
Nc1cccc(N)c1	5.04
Clc1cnc2c(ccc3cccnc32)c1	3.99
